Reference: patent US11001591B2, “TRAF 6 inhibitors” (HELMHOLTZ ZENTRUM MUENCHEN—DEUTSCHES FORSCHUNGSZENTRUM FÜR …, priority 2016, dated 2021)
Read-outs that look alike come from different tables or passages of the source.

How the values were obtained:
clAP1 = target: T1, clAP1 (Homo sapiens, UniProt Q13490); experiment: In vitro ubiquitination assay, clAP1; format: biochemical; details: RING E3 ligase; K63 chain formation
T1 construct: purchased Boston Biochem one of K-102, K-260, K-200B, K-220, K-240, K-270
Protocol: (§1) For analysis of clAP1, MDM2, TRIM63, RNF4, ITCH and E6AP mediated poly-ubiquitination, the respective ubiquitin ligase kit from Boston Biochem (K-102, K-260, K-200B, K-220, K-240 and K-270) was used. Here, reaction buffer, E1, E2 and E3 enzyme (and p53 substrate in case of MDM2) were mixed and pre-incubated with compound or DMSO for 5 minutes at room temperature before adding Mg^2+-ATP and mono-ubiquitin for reaction start. Ubiquitination was visualized by Western Blot analyses.

ICAM-1 and A20 = experiment: mRNA expression of NF-κB target genes in MEF cells; format: cell-based, mouse
Protocol: For MEF cells, 1.2×10^5 cells per sample were seeded, treated with compound for 6 hours and stimulated with either IL-1β or TNFα for 60 minutes. Jurkat T-cells and primary mouse CD4^+ T-cells were seeded at 2×10^5 cells per sample, also treated with compound for 6 hours and stimulated with PMA/lonomycin for 3 hours. RNA was isolated according to the manufacturer's protocol of the Qiagen RNeasy Kit (MEF cells) or the STRATEC INVITRAP® SPIN UNIVERSAL RNA MINI KIT (Jurkat T-cells). The isolation of mRNA from […] white adipose tissue from DIO mice was performed using TRIzol® Reagent according to manufacturer's instruction. To clear the isolated RNA from genomic DNA, samples (up to 5 μg RNA) were treated with RQ1 RNase-Free DNaseI (Promega) as described in the technical manual. For the reverse transcription of RNA into cDNA, the DNaseI digested RNA samples were processed using the SuperScript III First Strand cDNA Synthesis System (Invitrogen/ThermoFisher Scientific) following the manufacturer's protocol. […] For quantification of cDNA in the samples, the LightCylcer480 (Roche) and the KAPA SYBR FAST qPCR Kit were used. For relative quantification, the ΔΔCp method first described by Pfaffl (Pfaffl, M. W., A new mathematical model for relative quantification in real-time RT-PCR. Nucleic Acids Res, 2001. 29(9): p. e45) was applied.

p-IκBα (Ser32/36) = experiment: ALPHASurefire p-IκBα in IL-1β stimulated MEF cells; format: cell-based, mouse; details: compared with C25, C25-189, C25-167; FIG. 1C
Protocol: In order to detect protein levels of p-IκBα (Ser32/36) as well as total IκBα, 1×10^4 MEF cells were seeded in 96-well plates, treated with compound for 6 hours and stimulated with 1 ng/ml IL-1β for 7 minutes. The p-IκBα and total IκBα protein levels were analyzed using the ALPHASurefire kits (PerkinElmer) following the manufacturer's instruction. The general 2-plate protocol was conducted.

[1] = Pharmacokinetic studies IV, PO, IP; format: in vivo; details: for half-life: read-out: in vivo half-life in circulation
Protocol: (§2) All ADME (plasma stability, plasma protein binding, microsomal stability, Log D, Caco-2 assay, CYP450 inhibition and hERG predictor assay) as well as pharmacokinetic studies (Tmax, Cmax, AUC0-240 min, Mean Residence Time, Elimination half life, Elimination rate constant, Volume of Distribution and Clearance) of C25-140 (compound 3) were conducted by Bienta Enamine Biology Services of Bienta/Enamine Ltd.
The inventors also tested the pharmacokinetics (PK) of C25-140 after intravenous (IV), peroral (PO) and intraperitoneal (IP) injection of each 10 mg/kg compound. All the analyzed data are summarized in FIG. 9B and the concentration/time-course graph for IP administration is shown in FIG. 9C.

[2] = system: Jurkat T-cells and U2OS cells; experiment: Cell cycle assessment (propidium iodide); format: cell-based; details: 24 hours and 72 hours treatment
Protocol: For cell cycle staining, cells were seeded at 2×10^5 cells per sample and treated with compound or DMSO. After the indicated incubation time (24 or 72 hours), cells were fixed in 100% Ethanol and subsequently stained with the Propidium Iodide staining solution (0.1% Triton X-100; 20 μg/ml Propidium Iodide; 200 μg/ml RNAse A in PBS) for 40 min in the dark. The Propidium Iodide fluorescence was collected using the Attune Flow Cytometer (Thermo Fisher Scientific). Analysis was performed using the Single Cell analysis software FlowJo.

Plasma stability = format: in vitro ADME
Protocol: as §2

TRAF6 RZ1 protein = target: T2, TRAF6 RZ1 protein (Homo sapiens, UniProt Q9Y4K3); experiment: 2D-NMR (SOFAST-HMQC) binding; details: protein:compound 1:5
T2 construct: RING-Zincfinger1 (RZ1) domain (residues 50-159) of TRAF6 wildtype; GST (N, cleaved yes); made in house; host or cells: E. coli BL21 codon plus RIPL
Protocol: To determine whether the inhibitory compounds directly bind to TRAF6 rather than to Ubc13, 2D-NMR experiments were conducted. Untagged ^15N-labeled TRAF6 RZ1 protein (c=120 μM) and compound (c=20 mM) were incubated at a ratio of 1:5 in a 3 mm NMR tube for 10 minutes before spectra acquisition. To observe chemical shift perturbations upon compound addition, two-dimensional SOFAST-HMQC spectra were acquired. All measurements were performed using the Bruker Avance 600 MHz spectrometer.

MURF/TRIM63 = target: T3, MURF/TRIM63 (Homo sapiens, UniProt Q969Q1); experiment: In vitro ubiquitination assay, MURF/TRIM63; format: biochemical; details: K48 chain formation
T3 construct: purchased Boston Biochem one of K-102, K-260, K-200B, K-220, K-240, K-270
Protocol: as §1

CYP450 = CYP450 inhibition; format: in vitro ADME
Protocol: as §2

T2 sequence (Q9Y4K3 50-159): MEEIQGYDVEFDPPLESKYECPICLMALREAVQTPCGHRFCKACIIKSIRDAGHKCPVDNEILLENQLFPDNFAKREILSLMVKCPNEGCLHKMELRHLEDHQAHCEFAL
T1 sequence (Q13490 whole entry): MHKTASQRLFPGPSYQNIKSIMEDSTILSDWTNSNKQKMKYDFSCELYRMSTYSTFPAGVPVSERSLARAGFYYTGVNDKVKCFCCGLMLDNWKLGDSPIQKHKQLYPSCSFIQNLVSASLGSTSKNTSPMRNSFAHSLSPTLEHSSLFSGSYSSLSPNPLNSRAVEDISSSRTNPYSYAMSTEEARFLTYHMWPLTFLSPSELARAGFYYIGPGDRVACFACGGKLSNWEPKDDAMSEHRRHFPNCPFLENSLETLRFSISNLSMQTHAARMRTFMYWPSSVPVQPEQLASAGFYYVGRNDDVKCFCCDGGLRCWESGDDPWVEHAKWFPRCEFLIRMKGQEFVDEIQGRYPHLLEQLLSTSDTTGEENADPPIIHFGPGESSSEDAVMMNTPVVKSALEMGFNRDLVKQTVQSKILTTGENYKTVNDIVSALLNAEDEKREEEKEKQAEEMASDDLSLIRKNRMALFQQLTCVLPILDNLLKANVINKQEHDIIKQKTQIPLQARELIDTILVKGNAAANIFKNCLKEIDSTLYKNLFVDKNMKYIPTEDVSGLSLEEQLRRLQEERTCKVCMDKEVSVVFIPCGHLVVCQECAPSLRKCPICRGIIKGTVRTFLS
T3 sequence (Q969Q1 whole entry): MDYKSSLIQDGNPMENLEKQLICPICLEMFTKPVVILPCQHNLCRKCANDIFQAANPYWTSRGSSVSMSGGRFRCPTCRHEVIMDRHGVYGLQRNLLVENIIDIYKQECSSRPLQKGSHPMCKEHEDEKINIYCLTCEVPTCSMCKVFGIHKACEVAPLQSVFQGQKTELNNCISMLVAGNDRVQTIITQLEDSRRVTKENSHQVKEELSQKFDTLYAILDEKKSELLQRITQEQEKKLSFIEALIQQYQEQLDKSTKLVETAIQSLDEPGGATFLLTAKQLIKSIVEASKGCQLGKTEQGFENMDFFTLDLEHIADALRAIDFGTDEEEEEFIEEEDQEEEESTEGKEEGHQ

## Cc1nn(-c2ccc3nnc(C)n3n2)c(C)c1CCC(=O)N1CCC(Cc2ccccc2)CC1 [Compound 3, 1-(4-benzylpiperidin-1-yl)-3-(3,5-dimethyl-1-(3-methyl-[1,2,4]triazolo[4,3-b]pyridazin-6-yl)-1H-pyrazol-4-yl)propan-1-one]
clAP1
  auto-ubiquitination of clAP1: dose-dependently diminished
ICAM-1 and A20
  IL-1β-induced target gene expression (ICAM-1, A20 mRNA): diminished
ICAM-1 and A20; TNFα
  TNFα induced NF-κB target gene expression (ICAM-1, A20 mRNA): also affected
p-IκBα (Ser32/36)
  p-IκBα protein levels, ALPHASurefire: more active
[1]; 10 mg/kg
  adverse effects on animals during PK studies: no obvious adverse effects
[1]; IV, PO, IP 10 mg/kg
  distribution phase: rapid initial distribution phase
[1]; in vivo, iv, 10 mg/kg
  half-life: 1.33 h
[1]; in vivo, po, 10 mg/kg
  half-life: 2.12 h
[1]; in vivo, po, calculated, 10 mg/kg
  bioavailability: ~45%
[1]; in vivo, IP administration, 10 mg/kg
  half-life: 3.07 h
[2]
  cell cycle progression: not impaired
Plasma stability
  plasma stability: stable
TRAF6 RZ1 protein
  direct binding to TRAF6 (NMR peak shifts): directly binds
MURF/TRIM63
  S5A ubiquitination by MURF/TRIM63: not affected
CYP450
  CYP450 inhibition: some inhibitory potential on selected CYPs
